Earlier results in patent publication US12337056B2, “Topical compositions and methods” (MARY KAY INC., priority 2018, dated 2025).

Conditions: HyaClear Solution Presentation, Tri-K Industries, 2016

Substance: Sodium hyaluronate
- skin barrier function: improve skin barrier function
- skin desquamation: reduce skin desquamation
- skin lubricity: increase skin lubricity
- skin moisturization: increase skin moisturization
- skin roughness: reduce skin roughness
